Measured values from patent publication US6068851A, “Formulation for use in the prevention of pathogen induced diseases including HIV and HSV” (Infectio Recherche, Inc., priority 1999, dated 2000).

Experiments:
[1] = Drug release from poloxamer gel (diffusion cell, dialysis membrane, radiolabelled drugs); assay type: physicochemical; details: body temperature vs 4° C.; data not shown
Excerpt: The poloxamer gel could act as a sustained-drug release system which prolong the local microbicidal activity of the incorporated active agents. We have studied the release of antiviral agents (AZT, ddC, ddi, foscarnet, acyclovir) from our poloxamer gel formulations using radiolabelled drugs and a diffusion cell made of two compartments separated by a dialysis membrane. […] This is explained by the creation of large openings in the intermicellar network of the gel at high temperature which in turn increase the release of the incorporated active agents.

human cervical cells = experiment: Viability of human cervical cells with nonoxynol-9, free or in poloxamer gel; assay type: cell-based
Protocol: FIG. 2 represents the viability of human cervical cells following incubation with different concentrations of nonoxynol-9 either as free drug or incorporated into the poloxamer gel (19.5% w/w).

[2] = test system: vaginal and cervical mucosae of rabbits; experiment: In vivo tolerance/toxicity, vaginal and cervical mucosae, daily intravaginal application; parameters: species or system New Zealand rabbits; details: once daily intravaginal for two weeks; nonoxynol-9 dose 125 mg
Protocol: (§1) Studies have been performed to evaluate the tolerance and toxicity of the poloxamer 407 gel (19.5% w/w) when applied locally once daily for two weeks to the vaginal and cervical mucosae of New Zealand rabbits. The gel was applied in its fluid state to allow a good penetration into the irregularly shaped surfaces of the mucosae. Biopsies of the vaginal and cervical mucosae were performed on days 0, 4, 7 and 14 for histological examinations. […] Such toxicity induced by nonoxynol-9 might favour the entry of pathogens.

[3] = test system: cervical mucosa of rabbits; experiment: Histopathology of cervix after daily intravaginal application; assay type: in vivo, New Zealand rabbits; details: once daily intravaginal for two weeks
Protocol: as §1

[4] = background statement; cited from earlier work

Compound: Cc1cn([C@H]2C[C@H](N=[N+]=[N-])[C@@H](CO)O2)c(=O)[nH]c1=O [AZT]
- release of drugs from the poloxamer gel [1]: increased at body temperature when compared to 4 °C

Compound: Nc1nc2c(ncn2COCCO)c(=O)[nH]1 [acyclovir]
- release of drugs from the poloxamer gel [1]: increased at body temperature when compared to 4 °C

Compound: Nc1ccn([C@H]2CC[C@@H](CO)O2)c(=O)n1 [ddC, 2'-3'-dideoxycytidine]
- release of drugs from the poloxamer gel [1]: increased at body temperature when compared to 4 °C

Compound: O=c1[nH]cnc2c1ncn2[C@H]1CC[C@@H](CO)O1 [ddi, 2'-3'-dideoxyinosine]
- release of drugs from the poloxamer gel [1]: increased at body temperature when compared to 4 °C

Compound: O=C(O)P(=O)(O)O [foscarnet]
- release of drugs from the poloxamer gel [1]: increased at body temperature when compared to 4 °C

Compound: nonoxynol-9
- toxicity to human cervical cells (viability) (human cervical cells; different concentrations of nonoxynol-9, free or in gel): highly toxic to the human cervical cells in a dose-dependent manner
- concentration at which toxicity starts (human cervical cells; free nonoxynol-9, human cervical cells): 150 µg/mL
- toxicity to vaginal and cervical mucosae [2]: very toxic as evidenced by the presence of epithelial disruption, irritation, necrosis and bleeding
- histopathology of cervical mucosa [3]: large accumulation of eosinophiles in the sub-mucosa and induce a major loss of integrity of the epithelial cells
- local inflammation and ulcerations [4]: induce local inflammation and ulcerations
